Measured values published in patent publication US8524740B2, “Synthesis and anticancer activity of aryl and heteroaryl-quinolin derivatives” (Tairx, Inc., priority 2010, dated 2013).

Experiments:
[1] = tested on: Detroit 551; experiment: MTT assay, Detroit 551 normal human cells; type: cell-based; settings: Homo sapiens, Detroit 551; Table 6; MTT
Outline: (§1)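 H460 and Detroit 551 cells exposed to test compounds for 48 h (vehicle control); growth measured by MTT reduction, 2 h MTT incubation, formazan dissolved in DMSO, absorbance at 570 nm.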

[2] = tested on: A498; experiment: MTT assay, A498 cells; type: cell-based; settings: Homo sapiens, Table 6
Procedure: (§2) MTT (3-(4,5-Dimethylthiazol-2-yl)-2,5-diphenyltetrazolium bromide) assays. HL-60, Hep 3B, H460, A498, Colo205 and Detroit 551 cells were treated with tested compounds for the indicated periods. After treatment, cells were washed once with PBS and incubated with MTT (Sigma, St. Louis, Mo., USA) for 2 h. The formazan precipitate was dissolved in 150 μL of DMSO, and the absorbance was measured with an ELISA reader at 570 nm.

[3] = tested on: H460; experiment: MTT assay, H460 cells; type: cell-based; settings: Homo sapiens, NCI-H460; Table 6; MTT
Outline: as §1

[4] = tested on: Colo205; experiment: MTT assay, Colo205 cells; type: cell-based; settings: Homo sapiens, COLO 205, Table 6
Procedure: as §2

[5] = tested on: HL-60; experiment: MTT assay, HL-60 cells; type: cell-based; settings: Homo sapiens, Table 6, MTT
Outline: (§3)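 Cells exposed to compounds for 48 h (other runs: indicated periods), then washed with PBS and given MTT for 2 h. Formazan dissolved in DMSO and read at 570 nm as a measure of cell growth.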

[6] = tested on: Hep3B; experiment: MTT assay, Hep 3B cells; type: cell-based; settings: Homo sapiens, Table 6, MTT
Outline: as §3

## COc1cc(O)cc(-c2cc(=O)c3cc4c(cc3[nH]2)OCO4)c1 [Compound 166, 2-(3-Hydroxy-5-methoxyphenyl)-6,7-methylenedioxyquinolin-4-one]
[1]
  IC50: > 50 µM
[2]
  IC50: > 50 µM
[3]
  IC50: > 50 µM
[4]
  IC50: > 50 µM
[5]
  IC50: 400 nM
[6]
  IC50: > 50 µM
other
  melting point: > 300 °C
